In US20240109873A1, “ANTAGONISTS OF THE MUSCARINIC ACETYLCHOLINE RECEPTOR M4” (Vanderbilt University, priority 2020, published 2024) one finds remaining activity and IC50 data, which are given here for 13 compounds.

SMILES strings stand for the structures.

The assay has as its target T1, human mAChR M4 (Homo sapiens, UniProt P08173).
T1 construct: expressed in transfected cells; host or cells: CHO-K1 (ATCC), co-transfected with chimeric G protein Gqi5
T1 sequence (P08173 1-479): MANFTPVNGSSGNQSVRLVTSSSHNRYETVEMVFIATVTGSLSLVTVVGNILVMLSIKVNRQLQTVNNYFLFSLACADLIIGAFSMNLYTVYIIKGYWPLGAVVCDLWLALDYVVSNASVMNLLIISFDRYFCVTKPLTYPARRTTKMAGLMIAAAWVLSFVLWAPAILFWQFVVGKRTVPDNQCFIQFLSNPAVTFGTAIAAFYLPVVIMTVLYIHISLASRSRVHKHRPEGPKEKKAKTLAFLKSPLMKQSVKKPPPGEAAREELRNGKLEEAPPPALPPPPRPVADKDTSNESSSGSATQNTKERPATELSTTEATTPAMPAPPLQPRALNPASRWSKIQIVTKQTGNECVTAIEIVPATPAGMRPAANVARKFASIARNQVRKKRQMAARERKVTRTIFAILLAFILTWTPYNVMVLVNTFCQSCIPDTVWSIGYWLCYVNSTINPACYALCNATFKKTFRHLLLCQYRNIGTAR
Put plainly: mAChR M4 cell-based functional assay (calcium flux, antagonism of EC80 acetylcholine response, M4/Gqi5/CHO-K1 cells). The note with it: for remaining activity at 30 µM: CHO-K1, % ACh maximum at 30 μM, read-out: Human M4 Emin; for IC50: decrease of the response elicited by an EC80 concentration of acetylcholine, CHO-K1 cells, Gqi5. The protocol:
Human or rat M4 cDNA, along with the chimeric G protein Gqi5, were transfected into Chinese hamster ovary (CHO-K1) cells purchased from the American Type Culture Collection using Lipofectamine2000. M4/Gqi5/CHO cells were grown in Ham's F-12 medium containing 10% heat-inactivated fetal bovine serum (FBS), 20 mM HEPES, 500 μg/mL G418 sulfate, and 200 μg/mL Hygromycin B.
For high throughput measurement of agonist-evoked increases in intracellular calcium, CHO-K1 cells stably expressing muscarinic receptors were plated in growth medium lacking G418 and hygromycin at 15,000 cells/20 μL/well in Greiner 384-well black-walled, tissue culture (TC)-treated, clear-bottom plates (VWR). Cells were incubated overnight at 37° C. and 5% CO2. The next day, cells were washed using an ELX 405 (BioTek) with assay buffer; the final volume was then aspirated to 20 μL. Next, 20 μL of a 2.3 μM stock of Fluo-4/acetoxymethyl ester (Invitrogen, Carlsbad, CA), prepared as a 2.3 mM stock in DMSO and mixed in a 1:1 ratio with 10% (w/v) Pluronic F-127 and diluted in assay buffer, was added to the wells and the cell plates were incubated for 50 min at 37° C. and 5% CO2. Dye was removed by washing with the ELX 405 and the final volume was aspirated to 20 μL. Compound master plates were formatted in a 10-point concentration-response curve (CRC) format (1:3 dilutions) in 100% DMSO with a starting concentration of 10 or 1 mM using a BRAVO liquid handler (Agilent). Test compound CRCs were then transferred to daughter plates (240 nL) using the Echo acoustic plate reformatter (Labcyte, Sunnyvale, CA) and then diluted into assay buffer (40 μL) to a 2× stock using a Thermo Fisher Combi (Thermo Fisher Scientific, Waltham, MA).
Calcium flux was measured using the Functional Drug Screening System (FDSS) 6000 or 7000 (Hamamatsu Corporation, Tokyo, Japan) as an increase in the fluorescent static ratio. Compounds were applied to cells (20 μL, 2×) using the automated system of the FDSS at 2 seconds into the protocol and the data were collected at 1 Hz. At 143 s, 10 μL of an EC20 concentration of the muscarinic receptor agonist acetylcholine was added (5×), followed by the addition of 12 μL of an EC80 concentration of acetylcholine at the 268 s time point (5×). Agonist activity was analyzed as a concentration-dependent increase in calcium mobilization upon compound addition. Positive allosteric modulator activity was analyzed as a concentration-dependent increase in the EC20 acetylcholine response. Antagonist activity was analyzed as a concentration-dependent decrease in the EC80 acetylcholine response; for the purposes of the tables herein, an IC50 (inhibitory concentration 50) was calculated as a concentration-dependent decrease of the response elicited by an EC80 concentration of acetylcholine. Concentration-response curves were generated using a four-parameter logistical equation in XLFit curve fitting software (IDBS, Bridgewater, NJ) for Excel (Microsoft, Redmond, WA) or Prism (GraphPad Software, Inc., San Diego, CA) or the Dotmatics software platform (Dotmatics, Bishop's Stortford, UK). […]
Compounds were synthesized as described above. Activity (IC50 and Emin) was determined in the mAChR M4 cell-based functional assay as described above and the data are shown in Table 2.

`[2H]C([2H])(N1C[C@H]2C[C@H](Nc3nnc(-c4cnccc4C(F)(F)F)cc3C)C[C@H]2C1)C(F)(F)C1CCOCC1` [Compound 37, (3aR,5s,6aS)-2-(2,2-difluoro-2-(tetrahydro-2H-pyran-4-yl)ethyl-1,1-d2)-N-(4-methyl-6-(4-(trifluoromethyl)pyridin-3-yl)pyridazin-3-yl)octahydrocyclopenta[c]pyrrol-5-amine]: the remaining activity at 30 µM came to 4% and the IC50 turned out to be 21 nM.

For the compound `[2H]C([2H])(C1CC(C)(C)OC(C)(C)C1)N1C[C@H]2C[C@H](Nc3ccc(-c4cnccc4C(F)(F)F)nn3)C[C@H]2C1` [Compound 32, (3aR,5s,6aS)-2-((2,2,6,6-tetramethyltetrahydro-2H-pyran-4-yl)methyl-d2)-N-(6-(4-(trifluoromethyl)pyridin-3-yl)pyridazin-3-yl)octahydrocyclopenta[c]pyrrol-5-amine], the remaining activity at 30 µM came to 14% and the IC50 was 24 nM.

For the compound `[2H]C([2H])(C1CCOCC1)N1C[C@H]2C[C@H](Nc3ccc(-c4cnccc4C(F)F)nn3)C[C@H]2C1` [Compound 13, (3aR,5s,6aS)-N-(6-(4-(difluoromethyl)pyridin-3-yl)pyridazin-3-yl)-2-((tetrahydro-2H-pyran-4-yl)methyl-d2)octahydrocyclopenta[c]pyrrol-5-amine], the remaining activity at 30 µM is 4% and the IC50 amounted to 1.2 nM.

`[2H]C1([2H])CC(C([2H])([2H])N2C[C@H]3C[C@H](Nc4ccc(-c5cnccc5C(F)(F)F)nn4)C[C@@]3(C)C2)CC([2H])([2H])O1` (racemic) [Compound 27, (3aR,5S,6aS)-3a-methyl-2-((tetrahydro-2H-pyran-4-yl-2,2,6,6-d4)methyl-d2)-N-(6-(4-(trifluoromethyl)pyridin-3-yl)pyridazin-3-yl)octahydrocyclopenta[c]pyrrol-5-amine and (3aS,5R,6aR)-3a-methyl-2-((tetrahydro-2H-pyran-4-yl-2,2,6,6-d4)methyl-d2)-N-(6-(4-(trifluoromethyl)pyridin-3-yl)pyridazin-3-yl)octahydrocyclopenta[c]pyrrol-5-amine]: the remaining activity at 30 µM is 3% and the IC50 is 3.2 nM.

As for `[2H]C([2H])(N1C[C@H]2C[C@H](Nc3ccc(-c4cnccc4C(F)(F)F)nn3)C[C@H]2C1)[C@]12CCC[C@H]1OCC2` (racemic) [Compound 29, (3aR,5s,6aS)-2-(((3aR,6aR)-hexahydro-3aH-cyclopenta[b]furan-3a-yl)methyl-d2)-N-(6-(4-(trifluoromethyl)pyridin-3-yl)pyridazin-3-yl)octahydrocyclopenta[c]pyrrol-5-amine and (3aR,5s,6aS)-2-(((3aS,6aS)-hexahydro-3aH-cyclopenta[b]furan-3a-yl)methyl-d2)-N-(6-(4-(trifluoromethyl)pyridin-3-yl)pyridazin-3-yl)octahydrocyclopenta[c]pyrrol-5-amine], the remaining activity at 30 µM was 4% and the IC50 was 44 nM.

On to `[2H]C([2H])(C1CC2(CC2)CO1)N1C[C@H]2C[C@H](Nc3ccc(-c4cccnc4C(F)(F)F)nn3)C[C@H]2C1` (stereo partly drawn) [Compound 54, (3aR,Ss,6aS)-2-((5-oxaspiro[2.4]heptan-6-yl)methyl-d2)-N-(6-(2-(trifluoromethyl)pyridin-3-yl)pyridazin-3-yl)octahydrocyclopenta[c]pyrrol-5-amine], for which the remaining activity at 30 µM is 2% and the IC50 came out at 0.69 nM.

In the case of `[2H]C([2H])([C@H]1CCCOC1)N1C[C@H]2C[C@H](Nc3ccc(-c4cnccc4C(F)(F)F)nn3)C[C@H]2C1` [Compound 25, (3aR,5s,6aS)-2-(((R)-tetrahydro-2H-pyran-3-yl)methyl-d2)-N-(6-(4-(trifluoromethyl)pyridin-3-yl)pyridazin-3-yl)octahydrocyclopenta[c]pyrrol-5-amine], the remaining activity at 30 µM worked out at 6% and the IC50 worked out at 35 nM.

Consider `[2H]C([2H])(C1CCCOCC1)N1C[C@H]2C[C@H](Nc3ccc(-c4cccnc4C(F)(F)F)nn3)C[C@H]2C1` (stereo partly drawn) [Compound 52, (3aR,5s,6aS)-2-(oxepan-4-ylmethyl-d2)-N-(6-(2-(trifluoromethyl)pyridin-3-yl)pyridazin-3-yl)octahydrocyclopenta[c]pyrrol-5-amine], for which the remaining activity at 30 µM is 2% and the IC50 was 0.58 nM.

Turning to `[2H]C1([2H])CC(C([2H])([2H])N2C[C@H]3C[C@H](Nc4ccc(-c5cnccc5C(F)(F)F)nn4)C[C@H]3C2)CC([2H])([2H])O1` [Compound 12, (3aR,5s,6aS)-2-((tetrahydro-2H-pyran-4-yl-2,2,6,6-d4)methyl-d2)-N-(6-(4-(trifluoromethyl)pyridin-3-yl)pyridazin-3-yl)octahydrocyclopenta[c]pyrrol-5-amine], the remaining activity at 30 µM came out at 2% and the concentration for half-maximal inhibition (IC50) turned out to be 0.77 nM.

Turning to `[2H]C([2H])(N1C[C@H]2C[C@H](Nc3ccc(-c4cccnc4C(F)(F)F)nn3)C[C@H]2C1)C12COC(C)(C1)C2` [Compound 55, (3aR,5s,6aS)-2-((1-methyl-2-oxabicyclo[2.1.1]hexan-4-yl)methyl-d2)-N-(6-(2-(trifluoromethyl)pyridin-3-yl)pyridazin-3-yl)octahydrocyclopenta[c]pyrrol-5-amine], the remaining activity at 30 µM worked out at 3% and the half-maximal inhibitory concentration (IC50) came to 5.5 nM.

In the case of `[2H]C([2H])(N1C[C@H]2C[C@H](Nc3ccc(-c4cnccc4C(F)(F)F)nn3)C[C@H]2C1)[C@@]12CCCCC[C@H]1OCC2` (racemic) [Compound 30, (3aR,5s,6aS)-2-(((3aS,8aR)-octabydro-3aH-cyclohepta[b]furan-3a-yl)methyl-d2)-N-(6-(4-(trifluoromethyl)pyridin-3-yl)pyridazin-3-yl)octahydrocyclopenta[c]pyrrol-5-amine and (3aR,5s,6aS)-2-(((3aR,8aS)-octahydro-3aH-cyclohepta[b]furan-3a-yl)methyl-d2)-N-(6-(4-(trifluoromethyl)pyridin-3-yl)pyridazin-3-yl)octahydrocyclopenta[c]pyrrol-5-amine], the remaining activity at 30 µM was determined as 31% and the IC50 was found to be 4000 nM.

For the compound `[2H]C([2H])(C1CCOCC1(C)C)N1C[C@H]2C[C@H](Nc3nnc(-c4cnccc4C(F)(F)F)cc3OC)C[C@H]2C1` (stereo partly drawn) [Compound 21, (3aR,5s,6aS)-2-((3,3-dimethyltetrahydro-2H-pyran-4-yl)methyl-d2)-N-(4-methoxy-6-(4-(trifluoromethyl)pyridin-3-yl)pyridazin-3-yl)octahydrocyclopenta[c]pyrrol-5-amine], the remaining activity at 30 µM was 2% and the IC50 is 11 nM.

On to `[2H]C([2H])(N1C[C@H]2C[C@H](Nc3ccc(-c4cnccc4C(F)(F)F)nn3)C[C@H]2C1)C1(F)CCOCC1` [Compound 11, (3aR,5s,6aS)-2-((4-fluorotetrahydro-2H-pyran-4-yl)methyl-d2)-N-(6-(4-(trifluoromethyl)pyridin-3-yl)pyridazin-3-yl)octahydrocyclopenta[c]pyrrol-5-amine], for which the remaining activity at 30 µM worked out at 2% and the IC50 was 0.86 nM.
